In patent US10479784B2, “Substituted pyrazin-2-amines as inhibitors of ATR kinase” (Vertex Pharmaceuticals Incorporated, priority 2008, dated 2019):
pKi: −log10 of the molar value.

target: full-length ATR (Homo sapiens (Human), UniProt Q13535); assay: ATR Inhibition Assay (radioactive-phosphate incorporation); format: biochemical; conditions: read-out: ATR Ki
Procedure, shortened: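 Full-length human ATR (5 nM) was assayed at 25 °C in 50 mM Tris/HCl pH 7.5, 10 mM MgCl2, 1 mM DTT, with 10 μM [γ-33P]ATP and 800 μM peptide, after 10-min compound preincubation. Reactions were stopped after 24 h, captured on phosphocellulose and counted; Ki(app) came from non-linear regression of initial rates.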

full-length ATR, sequence (Q13535 whole entry): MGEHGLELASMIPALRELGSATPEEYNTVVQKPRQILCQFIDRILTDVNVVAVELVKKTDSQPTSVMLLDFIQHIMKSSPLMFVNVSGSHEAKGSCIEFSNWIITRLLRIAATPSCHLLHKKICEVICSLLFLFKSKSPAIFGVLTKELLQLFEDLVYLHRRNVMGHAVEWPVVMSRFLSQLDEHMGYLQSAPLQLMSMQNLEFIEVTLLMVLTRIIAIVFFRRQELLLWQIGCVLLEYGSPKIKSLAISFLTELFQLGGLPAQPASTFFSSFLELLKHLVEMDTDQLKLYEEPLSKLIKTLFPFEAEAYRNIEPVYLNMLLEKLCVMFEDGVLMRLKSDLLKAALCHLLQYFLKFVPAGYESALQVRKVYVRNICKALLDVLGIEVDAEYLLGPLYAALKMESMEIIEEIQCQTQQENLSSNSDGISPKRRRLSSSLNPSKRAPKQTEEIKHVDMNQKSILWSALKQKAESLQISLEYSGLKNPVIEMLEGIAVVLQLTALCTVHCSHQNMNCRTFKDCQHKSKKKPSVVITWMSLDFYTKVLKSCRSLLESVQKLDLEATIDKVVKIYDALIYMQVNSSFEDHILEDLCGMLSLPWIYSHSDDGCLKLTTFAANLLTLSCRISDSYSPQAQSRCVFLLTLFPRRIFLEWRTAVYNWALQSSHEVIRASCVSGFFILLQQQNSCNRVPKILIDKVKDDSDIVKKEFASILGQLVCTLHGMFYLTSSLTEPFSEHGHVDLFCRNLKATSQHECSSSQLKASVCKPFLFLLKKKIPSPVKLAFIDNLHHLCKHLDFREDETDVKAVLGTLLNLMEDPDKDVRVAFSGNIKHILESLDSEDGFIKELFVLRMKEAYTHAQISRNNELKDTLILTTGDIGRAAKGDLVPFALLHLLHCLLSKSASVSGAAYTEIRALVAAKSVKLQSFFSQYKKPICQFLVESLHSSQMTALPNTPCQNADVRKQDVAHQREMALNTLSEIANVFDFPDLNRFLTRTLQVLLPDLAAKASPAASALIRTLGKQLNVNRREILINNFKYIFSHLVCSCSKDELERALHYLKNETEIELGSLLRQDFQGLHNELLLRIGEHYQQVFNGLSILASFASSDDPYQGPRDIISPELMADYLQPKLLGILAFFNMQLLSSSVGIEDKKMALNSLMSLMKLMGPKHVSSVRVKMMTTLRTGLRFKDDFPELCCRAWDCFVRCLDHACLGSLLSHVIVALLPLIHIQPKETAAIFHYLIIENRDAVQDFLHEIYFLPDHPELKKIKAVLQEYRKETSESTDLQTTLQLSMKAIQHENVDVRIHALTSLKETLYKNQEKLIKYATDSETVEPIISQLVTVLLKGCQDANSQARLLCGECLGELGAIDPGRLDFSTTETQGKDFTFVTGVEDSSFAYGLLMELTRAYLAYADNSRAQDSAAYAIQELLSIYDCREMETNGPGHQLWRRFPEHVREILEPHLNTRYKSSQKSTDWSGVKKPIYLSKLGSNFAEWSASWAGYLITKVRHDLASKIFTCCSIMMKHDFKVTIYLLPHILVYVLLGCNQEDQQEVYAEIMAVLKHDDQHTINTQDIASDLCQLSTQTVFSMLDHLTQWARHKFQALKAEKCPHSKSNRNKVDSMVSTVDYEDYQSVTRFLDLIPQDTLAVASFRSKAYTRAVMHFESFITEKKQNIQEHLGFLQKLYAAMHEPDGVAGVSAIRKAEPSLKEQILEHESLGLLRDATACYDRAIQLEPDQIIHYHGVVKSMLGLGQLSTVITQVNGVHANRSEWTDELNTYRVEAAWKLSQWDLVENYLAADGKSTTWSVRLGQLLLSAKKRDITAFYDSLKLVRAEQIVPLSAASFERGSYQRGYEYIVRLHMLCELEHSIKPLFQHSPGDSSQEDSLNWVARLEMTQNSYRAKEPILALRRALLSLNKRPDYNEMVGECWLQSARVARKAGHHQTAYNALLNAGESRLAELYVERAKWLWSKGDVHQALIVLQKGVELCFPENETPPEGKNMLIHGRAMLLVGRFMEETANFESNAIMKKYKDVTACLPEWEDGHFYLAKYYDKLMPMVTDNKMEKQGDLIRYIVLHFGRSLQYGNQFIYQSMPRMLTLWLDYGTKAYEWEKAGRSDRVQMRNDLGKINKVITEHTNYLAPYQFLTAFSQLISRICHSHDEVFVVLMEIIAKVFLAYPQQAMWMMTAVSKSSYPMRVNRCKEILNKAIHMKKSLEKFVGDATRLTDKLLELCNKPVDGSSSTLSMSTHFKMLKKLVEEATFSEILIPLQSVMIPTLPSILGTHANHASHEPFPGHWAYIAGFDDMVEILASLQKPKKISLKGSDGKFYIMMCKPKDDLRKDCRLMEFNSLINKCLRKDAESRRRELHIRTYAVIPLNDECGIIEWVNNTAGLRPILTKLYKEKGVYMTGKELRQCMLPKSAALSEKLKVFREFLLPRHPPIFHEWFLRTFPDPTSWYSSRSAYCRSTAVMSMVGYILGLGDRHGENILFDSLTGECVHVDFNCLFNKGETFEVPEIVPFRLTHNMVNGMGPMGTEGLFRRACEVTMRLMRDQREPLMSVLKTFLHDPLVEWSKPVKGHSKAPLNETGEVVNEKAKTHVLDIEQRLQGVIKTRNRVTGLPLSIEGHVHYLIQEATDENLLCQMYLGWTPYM

| Compound | pKi |
| --- | --- |
| CC(C)Oc1ccccc1-c1nnc(-c2nc(-c3ccc(C(=O)N(C)C)cc3)cnc2N)o1 [IA-108, 4-[5-amino-6-[5-(2-isopropoxyphenyl)-1,3,4-oxadiazol-2-yl]pyrazin-2-yl]-N,N-dimethyl-benzamide] | ≥ 8.00 |
| Cc1cccc2nc(-c3nc(-c4ccc(S(C)(=O)=O)cc4)cnc3N)[nH]c12 [Compound I-119, 3-(7-methyl-1H-benzo[d]imidazol-2-yl)-5-(4-(methylsulfonyl)phenyl) pyrazin-2-amine] | 7.00 to 8.00 |
| Nc1ncc(-c2ccc(S(=O)(=O)N3CCC3)cc2)nc1-c1nnc(-c2ccccc2)o1 [IA-112, 5-[4-(azetidin-1-ylsulfonyl)phenyl]-3-(5-phenyl-1,3,4-oxadiazol-2-yl)pyrazin-2-amine] | ≥ 8.00 |
| Nc1ncc(-c2cccc(C(=O)N3CCOCC3)c2)nc1-c1nc2ccccc2[nH]1 [Compound I-125, (3-(5-amino-6-(1H-benzo[d]imidazol-2-yl)pyrazin-2-yl)phenyl) (morpholino)methanone] | 7.00 to 8.00 |
| Nc1ncc(-c2cccc(C(=O)N3CCC(O)C3)c2)nc1C(=O)Nc1ccccc1 (stereo not shown) [Compound I-65, 3-amino-6-(3-(3-hydroxypyrrolidine-1-carbonyl)phenyl)-N-phenylpyrazine-2-carboxamide] | 5.30 to 7.00 |
| CC(C)S(=O)(=O)c1ccc(-c2cnc(N)c(-c3nnc(-c4ccc(CNCC(F)F)s4)o3)n2)cc1 [IA-236, 3-[5-[5-[(2,2-difluoroethylamino)methyl]-2-thienyl]-1,3,4-oxadiazol-2-yl]-5-(4-isopropylsulfonylphenyl)pyrazin-2-amine] | 7.00 to 8.00 |
| CC(C)S(=O)(=O)c1ccc(-c2cnc(N)c(-c3nnc(-c4ccc(CNCCF)cc4F)o3)n2)cc1 [IA-340, 3-[5-[2-fluoro-4-[(2-fluoroethylamino)methyl]phenyl]-1,3,4-oxadiazol-2-yl]-5-(4-isopropylsulfonylphenyl)pyrazin-2-amine] | ≥ 8.00 |
| Nc1ncc(-c2cccnc2)nc1C(=O)Nc1ccc2cc[nH]c2c1 [Compound I-105, 3-amino-N-(1H-indol-6-yl)-6-(pyridin-3-yl)pyrazine-2-carboxamide] | 7.00 to 8.00 |
| CNCc1ccc(-c2nnc(-c3nc(-c4ccc(S(=O)(=O)C(C)C)nc4)cnc3N)o2)cc1 [IA-303, 5-(6-isopropylsulfonyl-3-pyridyl)-3-[5-[4-(methylaminomethyl)phenyl]-1,3,4-oxadiazol-2-yl]pyrazin-2-amine] | ≥ 8.00 |
| CC(=O)NCc1ccc(-c2cnc(N)c(-c3nc4ccccc4[nH]3)n2)cc1 [Compound I-130, N-(4-(5-amino-6-(1H-benzo[d]imidazol-2-yl)pyrazin-2-yl)benzyl) ethanamide] | 5.30 to 7.00 |
| Nc1ncc(-c2cnc(C(=O)N3CCCNCC3)nc2)nc1-c1nnc(-c2ccccc2)o1 [IA-37] | 7.00 to 8.00 |
| CNc1nnc(-c2nc(-c3ccc(C(=O)N(C)C)cc3)cnc2N)o1 [IA-33] | 5.30 to 7.00 |
| CNCc1ccc(-c2nnc(-c3nc(-c4ccc(S(=O)(=O)C(C)C)cc4)cnc3N)o2)s1 [IA-140, 5-(4-isopropylsulfonylphenyl)-3-[5-[5-(methylaminomethyl)-2-thienyl]-1,3,4-oxadiazol-2-yl]pyrazin-2-amine] | ≥ 8.00 |
| CCc1ccccc1-c1nnc(-c2nc(-c3ccc(C(=O)N(C)C)cc3)cnc2N)o1 [IA-155, 4-(5-amino-6-(5-(2-ethylphenyl)-1,3,4-oxadiazol-2-yl)pyrazin-2-yl)-N,N-dimethylbenzamide] | 7.00 to 8.00 |
| CC(C)S(=O)(=O)c1ccc(-c2cnc(N)c(-c3nnc(C(=O)NC4CCNC4)o3)n2)cc1 (stereo not shown) [IA-114, 5-[3-amino-6-(4-isopropylsulfonylphenyl)pyrazin-2-yl]-N-pyrrolidin-3-yl-1,3,4-oxadiazole-2-carboxamide] | 5.30 to 7.00 |
| CC(C)S(=O)(=O)c1ccc(-c2cnc(N)c(-c3nnc(NCCCN)o3)n2)cc1 [IA-97, N-[5-[3-amino-6-(4-isopropylsulfonylphenyl)pyrazin-2-yl]-1,3,4-oxadiazol-2-yl]propane-1,3-diamine] | 7.00 to 8.00 |
| CS(=O)(=O)c1ccc(-c2cnc(N)c(-c3nc4cccc(O)c4[nH]3)n2)cc1 [Compound I-109, 2-(3-amino-6-(4-(methylsulfonyl)phenyl)pyrazin-2-yl)-1H-benzo[d]imidazol-7-ol] | ≥ 8.00 |
| CC(C)(C)OC(=O)NCC[S+]([O-])c1ccccc1-c1cnc(N)c(-c2nnc(-c3ccccc3)o2)n1 (stereo not shown) [IA-164, tert-butyl N-[2-[2-[5-amino-6-(5-phenyl-1,3,4-oxadiazol-2-yl)pyrazin-2-yl]phenyl]sulfinylethyl]carbamate] | 5.30 to 7.00 |
| Cc1ccc2nc(-c3nc(-c4ccc(C(=O)N5CCN(C)CC5)cc4)cnc3N)[nH]c2c1 [Compound I-150, (4-(5-amino-6-(6-methyl-1H-benzo[d]imidazol-2-yl)pyrazin-2-yl)phenyl)(4-methylpiperazin-1-yl)methanone] | 7.00 to 8.00 |
| CN(C)C(=O)c1ccc(-c2cnc(N)c(-c3nnc(-c4ccsc4)o3)n2)cc1 [IA-262, 4-[5-amino-6-[5-(3-thienyl)-1,3,4-oxadiazol-2-yl]pyrazin-2-yl]-N,N-dimethyl-benzamide] | ≥ 8.00 |

| Compound | pKi |
| --- | --- |
| Nc1ncc(-c2ccn[nH]2)nc1C(=O)Nc1ccccc1 [Compound I-31, 3-amino-N-phenyl-6-(1H-pyrazol-5-yl)pyrazine-2-carboxamide] | 7.00 to 8.00 |
| Nc1ncc(-c2ccc(S(=O)(=O)N3CCCC3)cc2)nc1-c1nc2ccccc2[nH]1 [Compound I-134, 3-(1H-benzo[d]imidazol-2-yl)-5-(4-(pyrrolidin-1-ylsulfonyl)phenyl) pyrazin-2-amine] | ≥ 8.00 |
| CNCc1ccc(-c2nnc(-c3nc(-c4ccc(S(=O)(=O)C(C)CCO)cc4)cnc3N)o2)cc1 (stereo not shown) [IA-88, 3-[4-[5-amino-6-[5-[4-(methylaminomethyl)phenyl]-1,3,4-oxadiazol-2-yl]pyrazin-2-yl]phenyl]sulfonylbutan-1-ol] | ≥ 8.00 |
| CN(C)C(=O)c1ccc(-c2cnc(N)c(-c3nnc(-c4ccccc4)o3)n2)c(Cl)c1 [IA-46] | 7.00 to 8.00 |
| CC(C)S(=O)(=O)c1ccc(-c2cnc(N)c(-c3nnc(-c4ccc(CNCCO)cc4)o3)n2)cc1 [IA-178, 2-(4-(5-(3-amino-6-(4-(isopropylsulfonyl)phenyl)pyrazin-2-yl)-1,3,4-oxadiazol-2-yl)benzylamino)ethanol] | ≥ 8.00 |
| CC(C)S(=O)(=O)c1ccc(-c2cnc(N)c(-c3nnc(C(=O)N4CCCNCC4)o3)n2)cc1 [IA-79, [5-[3-amino-6-(4-isopropylsulfonylphenyl)pyrazin-2-yl]-1,3,4-oxadiazol-2-yl]-(1,4-diazepan-1-yl)methanone] | 7.00 to 8.00 |
| CN(C)C(=O)c1ccc(-c2cnc(N)c(-c3nnc(-c4cccc(N)n4)o3)n2)cc1 [IA-231, 4-[5-amino-6-[5-(6-amino-2-pyridyl)-1,3,4-oxadiazol-2-yl]pyrazin-2-yl]-N,N-dimethyl-benzamide] | 7.00 to 8.00 |
| CN(C)C(=O)c1ccc(-c2cnc(N)c(-c3nnc(Nc4cccc(Cl)c4)o3)n2)cc1 [IA-43] | 7.00 to 8.00 |
| CN(C)C(=O)c1ccc(-c2cnc(N)c(-c3nnc(-c4cccc([N+](=O)[O-])c4)o3)n2)cc1 [IA-286, 4-(5-amino-6-(5-(3-nitrophenyl)-1,3,4-oxadiazol-2-yl)pyrazin-2-yl)-N,N-dimethylbenzamide] | 5.30 to 7.00 |
| Cc1ccc2nc(-c3nc(-c4ccc(C(=O)N5CCCN(C)CC5)cc4)cnc3N)[nH]c2c1 [III-5, (4-(5-amino-6-(6-methyl-1H-benzo[d]imidazol-2-yl)pyrazin-2-yl)phenyl)(4-methyl-1,4-diazepan-1-yl)methanone] | 7.00 to 8.00 |
| CNCc1ccc(-c2nnc(-c3nc(-c4ccc(S(=O)(=O)NCCO)cc4)cnc3N)o2)cc1 [IA-304, 4-[5-amino-6-[5-[4-(methylaminomethyl)phenyl]-1,3,4-oxadiazol-2-yl]pyrazin-2-yl]-N-(2-hydroxyethyl)benzenesulfonamide] | ≥ 8.00 |
| Nc1ncc(-c2ccc(C(=O)NCCO)cc2)nc1-c1nc2ccccc2[nH]1 [Compound I-132, 4-(5-amino-6-(1H-benzo[d]imidazol-2-yl)pyrazin-2-yl)-N-(2-hydroxyethyl)benzamide] | 7.00 to 8.00 |
| CNCc1ccc(-c2nnc(-c3nc(-c4ccc(S(=O)(=O)C(C)C)cc4C)cnc3N)o2)cc1 [IA-293, 5-(4-isopropylsulfonyl-2-methyl-phenyl)-3-[5-[4-(methylaminomethyl)phenyl]-1,3,4-oxadiazol-2-yl]pyrazin-2-amine] | ≥ 8.00 |
| Nc1ncc(-c2ccc(S(=O)(=O)C3CCOCC3)cc2)nc1-c1nnc(-c2ccccc2F)o1 [IA-327, 3-[5-(2-fluorophenyl)-1,3,4-oxadiazol-2-yl]-5-(4-tetrahydropyran-4-ylsulfonylphenyl)pyrazin-2-amine] | ≥ 8.00 |
| Nc1ncc(-c2ccncc2)nc1-c1nnc(-c2ccccc2)o1 [IA-60] | ≥ 8.00 |
| Nc1ncc(-c2cccnc2)nc1C(=O)Nc1ccccc1F [Compound I-96, 3-amino-N-(2-fluorophenyl)-6-(pyridin-3-yl)pyrazine-2-carboxamide] | 5.30 to 7.00 |
| CC(C)S(=O)(=O)c1ccc(-c2cnc(N)c(-c3nnc(-c4ccc(C5CNC5)cc4)o3)n2)cc1 [IA-285, 3-[5-[4-(azetidin-3-yl)phenyl]-1,3,4-oxadiazol-2-yl]-5-(4-isopropylsulfonylphenyl)pyrazin-2-amine] | ≥ 8.00 |
| CC(=O)c1cccc(-c2cnc(N)c(-c3nnc(-c4ccccc4)o3)n2)c1 [IA-249, 1-[3-[5-amino-6-(5-phenyl-1,3,4-oxadiazol-2-yl)pyrazin-2-yl]phenyl]ethanone] | 7.00 to 8.00 |
| CN(C)C(=O)c1ccc(-c2cnc(N)c(-c3nnc(-c4sccc4C#N)o3)n2)cc1 [IA-189, 4-[5-amino-6-[5-(3-cyano-2-thienyl)-1,3,4-oxadiazol-2-yl]pyrazin-2-yl]-N,N-dimethyl-benzamide] | 7.00 to 8.00 |
| CC(C)S(=O)(=O)c1ccc(-c2cnc(N)c(-c3nnc(-c4ccc(CO)cc4)o3)n2)cc1 [IA-238, [4-[5-[3-amino-6-(4-isopropylsulfonylphenyl)pyrazin-2-yl]-1,3,4-oxadiazol-2-yl]phenyl]methanol] | ≥ 8.00 |
